Patent publication US8815900B2, “Compounds and compositions for reducing lipid levels” (CVI Pharmaceuticals Limited, priority 2007, dated 2014)

Tests used:
[1] = tested on: LDLR mRNA expression in HepG2 cells; assay: LDLR mRNA expression in HepG2 cells, quantitative real-time RT-PCR; format: cell-based, Human; details: 24 hours, indicated concentrations (FIG. 19A)
Experimental: In yet another experiment, HepG2 cells were treated with various compounds for 24 hours at the indicated doses. Total RNA was isolated and 2 μg was used to generate cDNA in a reaction containing random primers and M-MLV at 37° C. for 1 hour in a volume of […] Real-time PCR was performed on the cDNA using MCEP REALPLEX 2 SYSTEM (Eppendorf) and Universal MasterMix (Applied Biosystems). Human LDLR and GAPDH Pre-Developed TaqMan Assay Reagents (Applied Biosystems) were used to assess the levels of mRNA expressions in HepG2. The levels of LDLR mRNA were normalized to that of GAPDH. Each RNA samples was assayed in triplicate. The abundance of LDLR mRNA in untreated cells was defined as 1, and the amounts of LDLR mRNA from compound-treated cells were plotted relative to that value in FIG. 13. The data shown are mean±s.d.
Activities of some compounds of Formulas I, II, III, and IV on LDLR mRNA expression were determined. HepG2 cells were treated with new compounds individually at a dose less than or equal to 10 μM for 24 hours. Total RNA was harvested for quantitative real-time RT-PCR analysis using the method described in Example 16B. […] In these experiments, berberine chloride was included for comparison.
Quantitative real-time RT-PCR was conducted, and triplicate was assayed in each RNA sample. The data are mean value of triplicates.
Total RNA was harvested for quantitative real-time RT-PCR analysis using method described in Examples 16B.

[2] = tested on: PCSK9 mRNA expression in HepG2 cells; assay: PCSK9 mRNA expression in HepG2 cells, quantitative real-time RT-PCR; format: cell-based, Human; details: 24 hours, indicated concentrations (FIG. 19B)
Experimental: The effects of compounds of Formula I, II, III, and IV on the inhibition of PCSK9 mRNA expression was examined (Horton J D, Cohen J C, Hobbs H H. “Molecular biology of PCSK9: its role in LDL metabolism” TRENDS in Biochemical Sciences 2007; 32:71-77; Cameron J, Ranheim T, Kulseth M A, Leren T P, Berge K E. “Berberine decreases PCSK9 expression in HepG2 cells” Atherosclerosis, 2008 online publication). HepG2 cells were treated with new compounds individually at 10 uM dose for 24 hours. Total RNA was harvested for quantitative real-time RT-PCR analysis using method described in Example 16B. The fold activity was derived by dividing the amount of normalized PCSK9 mRNA in compound-treated cells over the amount of PCSK9 mRNA in untreated control cells. In these experiments, berberine chloride (10 uM) was included for comparison (see FIG. 18).
Total RNA was harvested for quantitative real-time RT-PCR analysis using method described in Examples 16B. The fold activity was derived by dividing the amount of normalized LDLR or PCSK9 mRNA in compound-treated cells over the amount of LDLR or PCSK9 mRNA in untreated control cells.

COc1cc2c(cc1OC)C1Cc3ccc(OC)c(OS(=O)(=O)c4ccccc4)c3CN1CC2 (centres unmarked) [Compound 91, 2,3,10-trimethoxy-5,6,7,8,13,13a-hexahydroiso-quinolino[2,1-b]isoquinolin-9-yl benzenesulfonate]
LDLR mRNA expression [1]: dose-dependently increases | PCSK9 mRNA expression [2]: inhibits
